Patent publication US4601984A, “Process to produce antibiotics X-14873 A, G and H” (Hoffmann-La Roche Inc., priority 1983, dated 1986)
In brackets after ≈: the same amount, converted by molar mass.

Assays:
Staphylococcus aureus = assay: Minimum Inhibitory Concentration; assay type: cell-based; details: ATCC6538P; Staphylococcus aureus ATCC 6538P
Pseudomonas aeruginosa B = assay: Minimum Inhibitory Concentration; assay type: cell-based
Candida albicans = assay: Minimum Inhibitory Concentration; assay type: cell-based; details: NRRL477; Candida albicans NRRL 477
Mycobacterium phlei = assay: Minimum Inhibitory Concentration; assay type: cell-based; details: Mycolicibacterium phlei, ATCC355; Mycobacterium phlei ATCC 355
Klebsiella pneumoniae A = assay: Minimum Inhibitory Concentration; assay type: cell-based
[1] = Oral toxicity (LD50) in mice, 24 hours; details: mouse, in vivo
[2] = test system: Trichophyton mentagrophytes; assay: Minimum Inhibitory Concentration; assay type: cell-based
Escherichia coli 257 = assay: Minimum Inhibitory Concentration; assay type: cell-based
E. tenella = assay: In vitro coccidiostatic activity; assay type: cell-based; details: Eimeria tenella, read-out: in vitro activity against E. tenella, active concentration
Bacillus subtilis = assay: Minimum Inhibitory Concentration; assay type: cell-based; details: NRRL558; Bacillus subtilis NRRL 558
Treponema hyodysenteriae = assay: Minimum inhibitory concentration against the agent of swine dysentery; assay type: cell-based; details: Brachyspira hyodysenteriae
Bacillus sp. TA = assay: Minimum Inhibitory Concentration; assay type: cell-based; details: ATCC27860; Bacillus sp. TA ATCC 27860
Bacillus megaterium = assay: Minimum Inhibitory Concentration; assay type: cell-based; details: Priestia megaterium, ATCC8011; Bacillus megaterium ATCC 8011
Sarcina lutea = assay: Minimum Inhibitory Concentration; assay type: cell-based; details: Micrococcus luteus, ATCC9341; Sarcina lutea ATCC 9341
[3] = test system: Enterobacter cloacae 5699; assay: Minimum Inhibitory Concentration; assay type: cell-based
Streptococcus faecium = assay: Minimum Inhibitory Concentration; assay type: cell-based; details: Enterococcus faecium, ATCC8043; Streptococcus faecium ATCC 8043
[4] = test system: Staphylococcus aureus Smith; assay: Minimum Inhibitory Concentration; assay type: cell-based
gram-positive bacteria = assay: Activity against gram-positive bacteria, summary; assay type: cell-based
ruminants = assay: Growth promotion and feed utilization in ruminants; assay type: in vivo, e.g. cattle
Salmonella typhi P58A = assay: Minimum Inhibitory Concentration; assay type: cell-based; details: Salmonella enterica, read-out: Minimum Inhibitory Concentration
Microsporum audouini = assay: Minimum Inhibitory Concentration; assay type: cell-based
Proteus mirabilis 190 = assay: Minimum Inhibitory Concentration; assay type: cell-based
Saccharomyces cerevisiae = assay: Minimum Inhibitory Concentration; assay type: cell-based; details: ATCC4226; Saccharomyces cerevisiae ATCC 4226
Penicillum digitatum = assay: Minimum Inhibitory Concentration; assay type: cell-based; details: Penicillum digitatum ATCC 26821
Paecilomyces varioti = assay: Minimum Inhibitory Concentration; assay type: cell-based; details: ATCC25820; Paecilomyces varioti ATCC 25820
Streptomyces cellulosae = assay: Minimum Inhibitory Concentration; assay type: cell-based; details: ATCC3313; Streptomyces cellulosae ATCC 3313
[5] = test system: volatile fatty acids produced in the rumen; assay: Ratio of volatile fatty acids produced in the rumen (GLC); assay type: in vivo, steer; details: for VFA Ratio: C3/(C2 + nC4): ± one standard deviation, 3 animals
Serratia marcescens SM = assay: Minimum Inhibitory Concentration; assay type: cell-based
Bacillus sp. E = assay: Minimum Inhibitory Concentration; assay type: cell-based; details: ATCC27359; Bacillus sp. E ATCC 27359
Strain X-14873 = assay: Streptomycin sensitivity of the producing strain (disc); assay type: cell-based, Streptomyces sp. X-14873; details: Streptomyces, X14873; 10 mcg in 1/4" disc
[6] = Medication day 2, 30 g/ton in ration, nonmedicated 0.211 ± 0.019
[7] = Medication day 5, 30 g/ton in ration, nonmedicated 0.248 ± 0.058
[8] = Medication day 7, 30 g/ton in ration, nonmedicated 0.325 ± 0.166
[9] = Medication day 9, 30 g/ton in ration, nonmedicated 0.338 ± 0.164
[10] = Medication day 12, 30 g/ton in ration, nonmedicated 0.293 ± 0.148
[11] = Pre-medication day 1 (baseline)
[12] = Pre-medication day 3 (baseline)
[13] = Pre-medication day 5 (baseline)
[14] = Pre-medication day 8 (baseline)
[15] = Pre-medication day 10 (baseline)

Compound	MIC (Staphylococcus aureus)	MIC (Candida albicans)	MIC (Mycobacterium phlei)	LD50 at 24 h [1]	MIC (Bacillus subtilis)	MIC (Bacillus sp. TA)	MIC (Bacillus megaterium)	MIC (Sarcina lutea)	MIC (Streptococcus faecium)	effect on growth of gram-positive bacteria (gram-positive bacteria)	MIC (Saccharomyces cerevisiae)	MIC (Penicillum digitatum)	MIC (Paecilomyces varioti)	MIC (Streptomyces cellulosae)	VFA Ratio: C3/(C2 + nC4) [5, 6]	VFA Ratio: C3/(C2 + nC4) [5, 7]	VFA Ratio: C3/(C2 + nC4) [5, 8]	VFA Ratio: C3/(C2 + nC4) [5, 9]	VFA Ratio: C3/(C2 + nC4) [5, 10]	MIC (Bacillus sp. E)	other results
CCC(C(=O)C(C)C(O)C(C)C1OC(O)(CC(=O)O)C(CC)C(O)C1C)C1OC(C)(C2(O)OC(CC)(C(O)CC)CC2C)CC1C (stereo not drawn) [Antibiotic X-14873A]	6.3 µg/mL (≈ 9.56 µM)	62.5 µg/mL (≈ 94.9 µM)	3 µg/mL (≈ 4.55 µM)	120 mg/kg	3 µg/mL (≈ 4.55 µM)	3 µg/mL (≈ 4.55 µM)	3 µg/mL (≈ 4.55 µM)	3 µg/mL (≈ 4.55 µM)	0.1 µg/mL (≈ 0.152 µM)	adversely affecting the growth of certain gram-positive bacteria	500 µg/mL (≈ 759 µM)	500 µg/mL (≈ 759 µM)	125 µg/mL (≈ 190 µM)	12.5 µg/mL (≈ 19 µM)	0.445 ± 0.075	0.584 ± 0.328	0.679 ± 0.448	0.642 ± 0.387	0.495 ± 0.242	0.8 µg/mL (≈ 1.21 µM)	MIC (Pseudomonas aeruginosa B): 128 µg/mL (≈ 194 µM); MIC (Klebsiella pneumoniae A): 128 µg/mL (≈ 194 µM); MIC [2]: 100 µg/mL (≈ 152 µM); MIC (Escherichia coli 257): 128 µg/mL (≈ 194 µM); minimal effective concentration (E. tenella): 200 µg/mL; MIC (Treponema hyodysenteriae): 5 µg/mL (≈ 7.59 µM); MIC [3]: 128 µg/mL (≈ 194 µM); MIC [4]: 64 µg/mL (≈ 97.1 µM); efficiency of feed utilization in ruminant animals (ruminants; administered orally): increases the efficiency of feed utilization; activity as a growth promotant in ruminants (ruminants; ruminants, e.g. cattle): exhibit activity as a growth promotant in ruminants; MIC (Salmonella typhi P58A): 128 µg/mL (≈ 194 µM); MIC (Microsporum audouini): 100 µg/mL (≈ 152 µM); MIC (Proteus mirabilis 190): 128 µg/mL (≈ 194 µM); increase over control of the volatile fatty acid ratio vs lasalocid ([5]; 30 g/ton, compared with lasalocid): greater increase over control of the volitile fatty acid ratio than lasalocid; VFA Ratio: C3/(C2 + nC4) [5, 11]: 0.213 ± 0.016; VFA Ratio: C3/(C2 + nC4) [5, 12]: 0.235 ± 0.036; VFA Ratio: C3/(C2 + nC4) [5, 13]: 0.234 ± 0.042; VFA Ratio: C3/(C2 + nC4) [5, 14]: 0.245 ± 0.046; VFA Ratio: C3/(C2 + nC4) [5, 15]: 0.216 ± 0.038; MIC (Serratia marcescens SM): 128 µg/mL (≈ 194 µM)
CCC(C(=O)C(C)C(O)C(C)C1OC(C)(O)C(CC)C(O)C1C)C1OC(C)(C23OC(CC)C(CC)(CC2C)O3)CC1C (stereo not drawn) [Antibiotic X-14873G]	> 1000 µg/mL	> 1000 µg/mL	> 1000 µg/mL	4000 mg/kg	> 1000 µg/mL	> 1000 µg/mL	> 1000 µg/mL	> 1000 µg/mL	63 µg/mL (≈ 106 µM)	adversely affecting the growth of certain gram-positive bacteria	> 1000 µg/mL	> 1000 µg/mL	> 1000 µg/mL	> 1000 µg/mL						8 µg/mL (≈ 13.4 µM)	
CCC(C(=O)C(C)C(O)C(C)C1OC(C)(O)C(CC)C(O)C1C)C1OC(C)(C2(O)OC(CC)(C(O)CC)CC2C)CC1C (stereo not drawn) [Antibiotic X-14873H]	8 µg/mL (≈ 13 µM)	> 1000 µg/mL	> 1000 µg/mL	4000 mg/kg	16 µg/mL (≈ 26 µM)	8 µg/mL (≈ 13 µM)	4 µg/mL (≈ 6.51 µM)	16 µg/mL (≈ 26 µM)	2 µg/mL (≈ 3.25 µM)	adversely affecting the growth of certain gram-positive bacteria	> 1000 µg/mL	> 1000 µg/mL	> 1000 µg/mL	> 1000 µg/mL						2 µg/mL (≈ 3.25 µM)	
CC[C@@H](C(=O)[C@@H](C)[C@@H](O)[C@H](C)CCc1ccc(C)c(O)c1C(=O)O)[C@H]1O[C@](CC)([C@H]2CC[C@](O)(CC)[C@H](C)O2)C[C@@H]1C [Lasalocid, lasalocid, reference compound]															0.376 ± 0.109	0.390 ± 0.073	0.373 ± 0.015	0.381 ± 0.064	0.372 ± 0.056		VFA Ratio: C3/(C2 + nC4) [5, 11]: 0.229 ± 0.013; VFA Ratio: C3/(C2 + nC4) [5, 12]: 0.255 ± 0.051; VFA Ratio: C3/(C2 + nC4) [5, 13]: 0.244 ± 0.060; VFA Ratio: C3/(C2 + nC4) [5, 14]: 0.236 ± 0.041; VFA Ratio: C3/(C2 + nC4) [5, 15]: 0.224 ± 0.011
[H]/N=C(/N)N[C@H]1[C@H](O)[C@@H](O)[C@H](O[C@@H]2O[C@@H](C)[C@](O)(C=O)[C@H]2O[C@@H]2O[C@@H](CO)[C@H](O)[C@@H](O)[C@@H]2NC)[C@@H](N/C(N)=N\[H])[C@@H]1O [Streptomycin]																					zone of inhibition at 10 µg/disc (Strain X-14873): 13 mm
